Measurements as given in publication PMC8050276, “Estradiol analogs attenuate autophagy, cell migration and invasion by direct and selective inhibition of TRPML1, independent of estrogen receptors” (Scientific Reports, 2021).

Tests used:
[1] = target: T1, hTRPML1L15/16A, L577/578A (Homo sapiens, UniProt Q9GZU1, L15A/L16A); test: Whole-cell patch-clamp, tetracycline-inducible HEK293 hTRPML1L15/16A, L577/578A; format: cell-based; details: 30 µM ML-SA1, pH 4.6; read-out: TRPML1 IC50, whole-cell patch-clamp
T1 construct: host or cells: HEK293, FLP-in-Tet-On, tetracycline-induced
T1 sequence (Q9GZU1 with tags, fused parts or gaps L15A/L16A): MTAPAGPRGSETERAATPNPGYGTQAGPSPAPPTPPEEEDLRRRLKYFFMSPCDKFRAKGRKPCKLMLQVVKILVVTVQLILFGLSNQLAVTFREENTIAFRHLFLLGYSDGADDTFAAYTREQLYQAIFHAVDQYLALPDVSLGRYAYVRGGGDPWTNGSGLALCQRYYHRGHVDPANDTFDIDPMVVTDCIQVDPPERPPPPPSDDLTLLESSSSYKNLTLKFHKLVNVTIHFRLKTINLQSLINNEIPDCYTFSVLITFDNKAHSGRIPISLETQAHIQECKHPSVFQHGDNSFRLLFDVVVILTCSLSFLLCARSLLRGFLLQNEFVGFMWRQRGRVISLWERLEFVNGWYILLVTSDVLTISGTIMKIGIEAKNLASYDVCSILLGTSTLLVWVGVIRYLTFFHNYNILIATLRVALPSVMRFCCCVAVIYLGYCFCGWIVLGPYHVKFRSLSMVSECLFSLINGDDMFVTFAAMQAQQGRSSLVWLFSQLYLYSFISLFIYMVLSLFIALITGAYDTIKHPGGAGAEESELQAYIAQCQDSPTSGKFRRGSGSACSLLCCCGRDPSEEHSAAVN
Protocol: (§1) For whole-cell patch-clamp experiments tetracycline-inducible hTRPML1L15/16A, L577/578A, hTRPML2 and TRPML3 HEK293 cell lines were used, generated by ICAGEN Inc. using the FLP-in-Tet-On system. Experiments were performed as described previously[20],[42]. In brief, cells were cultured on coverslips (Fisherbrand, Fisher Scientific) in complete DMEM medium with 10% FBS (Thermo Fisher). HEK293 cells expressing the desired channel protein were patch-clamped after overnight induction with tetracycline (1 µg/mL). […] The pipette solution contained (mM) 122 Cs‐methanosulfonate, 4 NaCl, 10 EGTA, 2 Na-ATP, 2 MgCl2 and 20 HEPES, pH 7.2 (with CsOH). The standard bath solution contained (mM) 153 NaCl, 5 KCl, 2 CaCl2, 1 MgCl2, 20 HEPES and 10 Glucose (pH 7.4 with NaOH). The low pH bath solution contained (mM) 150 Na-Gluconate, 5 KCl, 2 CaCl2, 1 MgCl2, 10 glucose, 10 HEPES and 10 MES (pH 4.6). Whole‐cell currents were recorded using a Multiclamp 700B amplifier (Molecular Devices) with low‐pass filtering at 3 kHz. The currents were digitized at a sampling frequency of 10 kHz using BNC-2110 and PCI-6221 with NI-DAQmx (National Instruments) and stored directly to a hard drive. Current recording was done with WinWCP5.2.7 (University of Strathclyde, UK) software, and analysis was done with the help of a customized Igor pro program (WaveMetrics).

hTRPML3 = target: T2, hTRPML3 (Homo sapiens, UniProt Q8TDD5); test: Whole-cell patch-clamp, tetracycline-inducible HEK293 hTRPML3; format: cell-based; details: 30 µM ML-SA1, pH 7.4
T2 construct: host or cells: HEK293, FLP-in-Tet-On, tetracycline-induced
T2 sequence (Q8TDD5 1-553): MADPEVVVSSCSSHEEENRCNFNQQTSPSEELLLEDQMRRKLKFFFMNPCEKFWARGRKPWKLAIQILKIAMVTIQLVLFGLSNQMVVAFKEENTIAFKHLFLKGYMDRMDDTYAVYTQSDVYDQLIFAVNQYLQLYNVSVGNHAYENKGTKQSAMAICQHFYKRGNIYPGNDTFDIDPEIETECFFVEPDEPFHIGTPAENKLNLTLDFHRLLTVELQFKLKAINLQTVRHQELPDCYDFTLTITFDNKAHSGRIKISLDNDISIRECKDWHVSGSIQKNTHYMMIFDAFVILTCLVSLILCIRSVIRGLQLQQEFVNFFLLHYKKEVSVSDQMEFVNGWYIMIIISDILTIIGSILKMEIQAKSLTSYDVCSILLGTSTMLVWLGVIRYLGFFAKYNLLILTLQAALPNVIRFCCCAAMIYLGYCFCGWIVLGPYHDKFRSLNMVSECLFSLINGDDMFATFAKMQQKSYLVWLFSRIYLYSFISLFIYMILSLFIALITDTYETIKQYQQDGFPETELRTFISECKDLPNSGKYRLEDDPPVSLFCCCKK
Protocol: as §1

TRPML1 = target: T3, TRPML1 (Homo sapiens, UniProt Q9GZU1); test: Endolysosomal patch-clamp, endo-lysosomes from MDA-MB-231 cells; format: cell-based; details: activation with ML-SA1
T3 construct: vacuolin-enlarged endo-lysosomes isolated from WT and KO1 MDA-MB-231 cells; endogenous in cells; host or cells: MDA-MB-231
T3 sequence (Q9GZU1 whole entry): as the sequence (Q9GZU1 with tags, fused parts or gaps L15A/L16A) above, with A15L, A16L, A577L, A578L counted along it
Protocol: For whole-LE/LY manual patch-clamp recordings, cells were treated with 1 μM vacuolin-1 (> 2 h) at 37 °C and 5% CO2 and experiments performed as described previously[19],[25]. Compound was washed out before patch-clamp experimentation. Currents were recorded using an EPC-10 patch-clamp amplifier (HEKA, Lambrecht, Germany) and PatchMaster acquisition software (https://www.heka.com/). Data were digitized at 40 kHz and filtered at 2.8 kHz. Fast and slow capacitive transients were cancelled by the compensation circuit of the EPC-10 amplifier. All recordings were obtained at room temperature and were analyzed using PatchMaster acquisition software (https://www.heka.com/) and OriginPro 6.1 (https://www.originlab.com/). […] For all experiments, salt-agar bridges were used to connect the reference Ag–AgCl wire to the bath solution to minimize voltage offsets. Liquid junction potential was corrected. For the application of the small molecule inhibitors/flavonoids, cytoplasmic solution was completely exchanged by cytoplasmic solution containing compound. The current amplitudes at − 100 mV were extracted from individual ramp current recordings. Unless otherwise stated, cytoplasmic solution contained 140 mM K-MSA, 5 mM KOH, 4 mM NaCl, 0.39 mM CaCl2, 1 mM EGTA and 10 mM HEPES (pH was adjusted with KOH to 7.2). […]

MDA-MB-231 cells = test: Wound healing/migration scratch assay; format: cell-based, human; details: various concentrations, o/n
Protocol: Wound healing assay was performed using 12-well plates (Sarstedt) at full confluency. Cells were incubated overnight (serum-free), and a scratch was performed using a yellow pipet tip. Pictures were taken at 0 h and after over night (o/n) incubation using an inverted microscope (Leica DM IL LED) and using a microscope camera (Leica DFC 3000 G).

COc1ccc2c(c1)CC[C@@H]1[C@@H]2CC[C@]2(C)[C@@H](O)CC[C@@H]12 [EDME, 17β-estradiol methyl ether]
IC50 [1]: 220 nM | block of TRPML3, whole-cell patch-clamp (hTRPML3): no block | inhibition of TRPML1 activation in MDA-MB-231 endo-lysosomes (TRPML1): inhibits TRPML1 activation | migration of MDA-MB-231 cells (MDA-MB-231 cells): reduced significantly
